Data: paper PMC6743422, “Preclinical disposition of MGS0274 besylate, a prodrug of a potent group II metabotropic glutamate receptor agonist MGS0008 for the treatment of schizophrenia” (Pharmacology Research & Perspectives, 2019)
Where “and” joins values, the source holds several entries; their conditions need not be identical. Equal values may be shown once. Entries after “also recorded” stand apart in the source; their conditions may differ.

Legend:
mGlu2/3 receptors = details: cited from earlier work
[1] = Pharmacokinetics of MGS0008 in rats (intravenous or oral); type: in vivo, rat; details: fasted male rats
Experimental: The pharmacokinetic profiles of MGS0008 and MGS0274 were investigated in fasted male Wistar rats (n = 3) and fed male cynomolgus monkeys (n = 4). Monkeys had been given 60 g of a primate diet (PS‐A; Oriental Yeast, Tokyo, Japan) one hour before administration. For intravenous administration, MGS0008 was dissolved in saline (pH7.4) and administered to rats (3 mg/kg) and monkeys (1 mg/kg). Blood samples were collected from the tail vein (rats) or the forelimb cephalic vein (monkeys) into tubes containing EDTA‐2K at 5, 15, and 30 minutes and at 1, 2, 4, 8, and 24 hours postdose for both species, and an additional sample was collected at 12 hours postdose for monkeys. Urine samples were collected until 48 hours at 24‐hour intervals (rats) or at 0‐ to 8‐hour, 8‐ to 24‐hour, and 24‐ to 48‐hour intervals (monkeys). The plasma or urine samples was mixed with acetonitrile/methanol (9:1, v/v) containing [^13C2 ^15N]MGS0008 and centrifuged. Aliquots of the supernatant were subjected to bioanalysis using LC‐MS/MS (see Table S1‐E). For oral administration, MGS0008 was dissolved in distilled water (rats) or 0.5% w/v methylcellulose 400 (monkeys) and administered to rats (3 mg/kg) and monkeys (1 mg/kg). MGS0274 besylate was suspended in 0.5% w/v methylcellulose 400 containing 0.1% v/v Tween 80 and administered to monkeys at a dose of 2.89 mg/kg (1‐mg equivalent of MGS0008/kg). Blood samples were collected from the tail vein (rats) or the forelimb cephalic vein (monkeys) into tubes containing EDTA‐2K at 30 minutes, 1, 1.5, 2, 4, 6, 8, and 24 hours postdose for rats, and 30 minutes, 1, 2, 4, 8, 12, and 24 hours postdose for monkeys. The plasma samples were mixed with acetonitrile/methanol (9:1, v/v) containing internal standards ([^13C2 ^15N]MGS0008 and MGS0039) and centrifuged. Aliquots of the supernatant were subjected to bioanalysis using LC‐MS/MS (see Tables S1‐E and F). In the study examining the tissue distribution of MGS0008 in rats (3 mg/kg), blood samples were collected from the posterior vena cava into tubes containing EDTA‐2K under isoflurane anesthesia at 1.5, 4, 6, or 24 hours postdose. Then, the animals were euthanized by exsanguination from the abdominal aorta; cerebrospinal fluid (CSF) samples were drawn from the spinal cord space in each animal. The plasma or CSF was mixed with acetonitrile/methanol (9:1, v/v) containing [^13C2 ^15N]MGS0008 and centrifuged. Aliquots of the supernatant were subjected to bioanalysis using LC‐MS/MS (see Table S1‐E).
The plasma concentration‐time profiles of MGS0008 and MGS0274 were analyzed using a non‐compartmental analysis method with pharmacokinetic analysis software Phoenix® WinNonlin® 6.2 or later (Certara, Princeton, NJ).

[2] = Pharmacokinetics after oral MGS0274 besylate in monkeys; type: in vivo, cynomolgus monkey; details: fed male monkeys, MGS0274 besylate oral 2.89 mg/kg
Experimental: The pharmacokinetic profiles of MGS0008 and MGS0274 were investigated in fasted male Wistar rats (n = 3) and fed male cynomolgus monkeys (n = 4). Monkeys had been given 60 g of a primate diet (PS‐A; Oriental Yeast, Tokyo, Japan) one hour before administration. For intravenous administration, MGS0008 was dissolved in saline (pH7.4) and administered to rats (3 mg/kg) and monkeys (1 mg/kg). Blood samples were collected from the tail vein (rats) or the forelimb cephalic vein (monkeys) into tubes containing EDTA‐2K at 5, 15, and 30 minutes and at 1, 2, 4, 8, and 24 hours postdose for both species, and an additional sample was collected at 12 hours postdose for monkeys. Urine samples were collected until 48 hours at 24‐hour intervals (rats) or at 0‐ to 8‐hour, 8‐ to 24‐hour, and 24‐ to 48‐hour intervals (monkeys). The plasma or urine samples was mixed with acetonitrile/methanol (9:1, v/v) containing [^13C2 ^15N]MGS0008 and centrifuged. Aliquots of the supernatant were subjected to bioanalysis using LC‐MS/MS (see Table S1‐E). For oral administration, MGS0008 was dissolved in distilled water (rats) or 0.5% w/v methylcellulose 400 (monkeys) and administered to rats (3 mg/kg) and monkeys (1 mg/kg). MGS0274 besylate was suspended in 0.5% w/v methylcellulose 400 containing 0.1% v/v Tween 80 and administered to monkeys at a dose of 2.89 mg/kg (1‐mg equivalent of MGS0008/kg). Blood samples were collected from the tail vein (rats) or the forelimb cephalic vein (monkeys) into tubes containing EDTA‐2K at 30 minutes, 1, 1.5, 2, 4, 6, 8, and 24 hours postdose for rats, and 30 minutes, 1, 2, 4, 8, 12, and 24 hours postdose for monkeys. The plasma samples were mixed with acetonitrile/methanol (9:1, v/v) containing internal standards ([^13C2 ^15N]MGS0008 and MGS0039) and centrifuged. Aliquots of the supernatant were subjected to bioanalysis using LC‐MS/MS (see Tables S1‐E and F). In the study examining the tissue distribution of MGS0008 in rats (3 mg/kg), blood samples were collected from the posterior vena cava into tubes containing EDTA‐2K under isoflurane anesthesia at 1.5, 4, 6, or 24 hours postdose. Then, the animals were euthanized by exsanguination from the abdominal aorta; cerebrospinal fluid (CSF) samples were drawn from the spinal cord space in each animal. The plasma or CSF was mixed with acetonitrile/methanol (9:1, v/v) containing [^13C2 ^15N]MGS0008 and centrifuged. Aliquots of the supernatant were subjected to bioanalysis using LC‐MS/MS (see Table S1‐E). The plasma concentration‐time profiles of MGS0008 and MGS0274 were analyzed using a non‐compartmental analysis method with pharmacokinetic analysis software Phoenix® WinNonlin® 6.2 or later (Certara, Princeton, NJ).

[3] = Wistar, rat, MGS0008 intravenous 3 mg/kg, plasma
[4] = Wistar, rat, MGS0008 oral 3 mg/kg, plasma
[5] = cynomolgus monkey, plasma, compound monitored MGS0274, mean of two animals

Row | Cmax [2, 5] [ng/mL] | Tmax [2, 5] [h] | AUC(0-t) ([2]; cynomolgus monkey, plasma, compound monitored MGS0274, mean of two animals, read-out: AUC0–24h of MGS0274) [ng·h/mL] | Compound | agonist activity for mGlu2/3 receptors (mGlu2/3 receptors) | concentration at 24 h ([1]; Wistar, rat, plasma, other: intravenous or oral, MGS0008 intravenous or oral 3 mg/kg, below lower limit of quantification) [ng/mL] | clearance ([1]; Wistar, rat, plasma, MGS0008 intravenous 3 mg/kg, mean ± SD (n = 3), read-out: CLtotal (converted)) [mL/min/kg] | Vd ([1]; Wistar, rat, plasma, MGS0008 intravenous 3 mg/kg, mean ± SD (n = 3), read-out: Vdss) [L/kg] | bioavailability ([1]; Wistar, rat, plasma, MGS0008 oral 3 mg/kg, AUC0-∞ oral / AUC0-∞ intravenous × 100) [%] | CL renal ([1]; Wistar, rat, urine and plasma, MGS0008 intravenous 3 mg/kg) [mL/min/kg] | AUC(0-inf) [1, 3] [ng·h/mL] | half-life [1, 3] [h] | AUC(0-inf) [1, 4] [ng·h/mL] | Cmax [1, 4] [ng/mL] | Tmax [1, 4] [h] | half-life [1, 4] [h] | Urinary excretion (unchanged form) ([1]; MGS0008 intravenous 3 mg/kg, within 48 hours, % of administered dose, 3 mg/kg) | vomiting [2] | MGS0274 in plasma ([2]; lower limit of quantification 1 ng/mL, 2.89 mg/kg)
1 |  |  |  | N[C@]1(C(=O)O)[C@H]2[C@@H](C[C@@H]1F)[C@@H]2C(=O)O [MGS0008, (1S,2S,3S,5R,6S)‐2‐amino‐3‐fluorobicyclo[3.1.0]hexane‐2,6‐dicarboxylic acid] | potent agonist activity | < 3 | 9.13 | 0.545 ± 0.0939 | 78.1 | 8.52 | 5480 ± 293 | 1.54 ± 0.06 | 4280 ± 478 | 1990 ± 64.3 | 1.17 ± 0.289 | 0.968 ± 0.031 | 93.2% and 93.2 ± 4.69% |  | 
2 | 1.28 | 1 | 2.03 | CC(C)[C@@H]1CC[C@@H](C)C[C@H]1OC(=O)O[C@@H](C)OC(=O)[C@H]1[C@@H]2C[C@H](F)[C@@](N)(C(=O)O)[C@@H]21.O=S(=O)(O)c1ccccc1 [MGS0274 besylate, (1S,2S,3S,5R,6S)‐2‐amino‐3‐fluoro‐6‐({(1S)‐1‐[({[(1R,2S,5R)‐5‐methyl‐2‐(propan‐2‐yl)cyclohexyl]oxy}carbonyl)oxy]ethoxy}carbonyl)bicyclo[3.1.0]hexane‐2‐carboxylic acid monobenzenesulfonate] |  |  |  |  |  |  |  |  |  |  |  |  |  | two of the four monkeys experienced vomiting | barely detectable; also recorded: barely detected
